# Reference: patent publication US8796292B2, “Selective antibacterials for clostridium difficile infections” (GLSynthesis Inc., priority 2009, dated 2014)
# Where two headings read alike, the source gives them in different places.
# Legend:
# Assay in all cases: agar dilution MIC assay of anaerobic bacteria
# Bi. longum = type: cell-based, Bifidobacterium longum; conditions: Bifidobacterium longum, read-out: MIC
# Procedure: (§1) Each compound was assayed against a panel of anaerobic bacteria in culture, consisting of Gram-positive organisms, such as Lactobacilli, Bifidobacteria, Clostridium spp., and Gram-negative bacteria, such as […] fragilis spp., according to guidelines of the Clinical and Laboratory Standards Institute (CLSI document M11-A7, CLSI, Wayne, Pa., 2007). […] One tenth mL of diluted bacteria containing 500-1000 colony-forming units (CFU) was plated and spread, and the plates incubated at 37° C. for 24-48 hours. MIC (minimum inhibitory concentration) is equivalent to the lowest concentration in μg/ml at which growth, i.e., colony formation, is not observed. […] Bacteria were assayed using a reference agar dilution method. Drug dilutions and drug-supplemented agar plates were prepared manually. The test organisms were maintained frozen at −80° C. The isolates were sub-cultured on Supplemented Brucella Agar (SBA) plates in a Bactron II anaerobic chamber and incubated for 48 hours at 35-36° C. in the Bactron II anaerobe chamber. Following inoculation, the drug-supplemented plates were incubated at 35° C. for 48 hours in the anaerobic environment (5% hydrogen, 5% carbon dioxide, 90% nitrogen) of the Bactron II. The MIC in μg/ml was read per Clinical and Laboratory Standards Institute guidelines.
# C. difficile = type: cell-based, Clostridium difficile; conditions: Clostridioides difficile, read-out: MIC
# Procedure: as §1
# Bi. brevi = type: cell-based, Bifidobacterium brevi
# Procedure: as §1
# L. acidophilus = type: cell-based; conditions: Lactobacillus acidophilus
# Procedure: as §1
# Ba. fragilis = type: cell-based; conditions: Bacteroides fragilis
# Procedure: as §1
# E. lentum = type: cell-based, Eubacterium lentum; conditions: Eggerthella lenta, read-out: MIC
# Procedure: as §1
# L. casei = type: cell-based, Lactobacillus casei; conditions: Lacticaseibacillus casei
# Procedure: as §1
# [1] = Bi. longum, Micromyx Number 3968, Table 1
# [2] = C. difficile, Micromyx Number 1209, Table 1
# [3] = C. difficile, Micromyx Number 3579, Table 1
# [4] = C. difficile, Micromyx Number 3580, Table 1
# [5] = C. difficile, Micromyx Number 3581, Table 1
# [6] = C. difficile, Micromyx Number 3582, Table 1
# [7] = C. difficile, Micromyx Number 3584, Table 1
# [8] = C. difficile, Micromyx Number 3585, Table 1
# [9] = C. difficile, Micromyx Number 3586, Table 1
# [10] = C. difficile, Micromyx Number 3587, Table 1
# [11] = C. difficile, Micromyx Number 3588, Table 1
# [12] = C. difficile, Micromyx Number 3589, Table 1
# [13] = C. difficile, Micromyx Number 3590, Table 1
# [14] = C. difficile, Micromyx Number 3591, Table 1
# [15] = C. difficile, Micromyx Number 3593, Table 1
# [16] = C. difficile, Micromyx Number 3594, Table 1
# [17] = C. difficile, Micromyx Number 3595, Table 1
# [18] = C. difficile, Micromyx Number 4381 (ATCC strain), Table 1
# [19] = Bifidobacterium, Bi. brevi, Micromyx Number 3967, Table 1
# [20] = Ba. fragilis, Micromyx Number 0123 (ATCC strain), Gram negative, Table 1
# [21] = E. lentum, Micromyx Number 1274, Table 1
# [22] = Bi. Longum, Strain no. 3968 (ATCC strain), Table 3
# [23] = C. diff., Strain no. 3580, Table 3
# [24] = C. diff., Strain no. 3581, Table 3
# [25] = C. diff., Strain no. 3582, Table 3
# [26] = C. diff., Strain no. 3584, Table 3
# [27] = C. diff., Strain no. 3585, Table 3
# [28] = C. diff., Strain no. 3586, Table 3
# [29] = C. diff., Strain no. 3587, Table 3
# [30] = C. diff., Strain no. 3588, Table 3
# [31] = C. diff., Strain no. 3589, Table 3
# [32] = C. diff., Strain no. 4381 (ATCC strain), Table 3
# [33] = Bifidobacterium breve, Bi. Breve, Strain no. 3967 (ATCC strain), Table 3
# [34] = B. fragilis, Strain no. 0123 (ATCC strain), Gram-negative (control), Table 3
# [35] = Eu. Lentum, Strain no. 1274 (ATCC strain), Table 3
# [36] = Strain no. 1722 (ATCC strain), Table 3
structure (smiles),measurement,setting,value
"CN[C@H](CC(C)C)C(=O)N[C@H]1C(=O)N[C@@H](CC(N)=O)C(=O)N[C@H]2C(=O)N[C@H]3C(=O)N[C@H](C(=O)N[C@H](C(=O)O)c4cc(O)cc(O)c4-c4cc3ccc4O)[C@H](O)c3ccc(c(Cl)c3)Oc3cc2cc(c3O[C@@H]2O[C@H](CO)[C@@H](O)[C@H](O)[C@H]2O[C@H]2C[C@](C)(N)[C@H](O)[C@H](C)O2)Oc2ccc(cc2Cl)[C@H]1O [vancomycin, reference compound]",MIC,Bi. longum; [1],0.5 µg/mL
same,MIC,"C. difficile; C. diff. Strain no. 18285, Table 4",1 µg/mL
same,MIC,"C. difficile; C. diff. Strain no. 19265, Table 4",1 µg/mL
same,MIC,"C. difficile; C. diff. Strain no. 19273, Table 4",1 µg/mL
same,MIC,"C. difficile; C. diff. Strain no. 19281, Table 4",1 µg/mL
same,MIC,"C. difficile; C. diff. Strain no. 19291, Table 4",1 µg/mL
same,MIC,"C. difficile; C. diff. Strain no. 19369, Table 4",1 µg/mL
same,MIC,"C. difficile; C. diff. Strain no. 19382, Table 4",4 µg/mL
same,MIC,"C. difficile; C. diff. Strain no. 19540, Table 4",1 µg/mL
same,MIC,"C. difficile; C. diff. Strain no. 19580, Table 4",4 µg/mL
same,MIC,"C. difficile; C. diff. Strain no. 19680, Table 4",1 µg/mL
same,MIC,"C. difficile; C. diff. Strain no. 19681, Table 4",2 µg/mL
same,MIC,"C. difficile; C. diff. Strain no. 19683, Table 4",8 µg/mL
same,MIC,"C. difficile; C. diff. Strain no. 19687, Table 4",1 µg/mL
same,MIC,"C. difficile; C. diff. Strain no. 20066, Table 4",4 µg/mL
same,MIC,"C. difficile; C. diff. Strain no. 20152, Table 4",1 µg/mL
same,MIC,"C. difficile; C. diff. Strain no. 20307, Table 4",2 µg/mL
same,MIC,"C. difficile; C. diff. Strain no. 20494, Table 4",4 µg/mL
same,MIC,"C. difficile; C. diff. Strain no. 20680, Table 4",1 µg/mL
same,MIC,"C. difficile; C. diff. Strain no. 20934, Table 4",4 µg/mL
same,MIC,"C. difficile; C. diff. Strain no. 21099, Table 4",2 µg/mL
same,MIC,"C. difficile; C. diff., Micromyx Number 3579, Table 2",1 µg/mL
same,MIC,"C. difficile; C. diff., Micromyx Number 3580, Table 2",1 µg/mL
same,MIC,"C. difficile; C. diff., Micromyx Number 3581, Table 2",4 µg/mL
same,MIC,"C. difficile; C. diff., Micromyx Number 3582 (ATCC strain), Table 2",2 µg/mL
same,MIC,C. difficile; [2],1 µg/mL
same,MIC,C. difficile; [3],1 µg/mL
same,MIC,C. difficile; [4],1 µg/mL
same,MIC,C. difficile; [5],1 µg/mL
same,MIC,C. difficile; [6],0.25 µg/mL
same,MIC,C. difficile; [7],0.5 µg/mL
same,MIC,C. difficile; [8],0.5 µg/mL
same,MIC,C. difficile; [9],0.5 µg/mL
same,MIC,C. difficile; [10],1 µg/mL
same,MIC,C. difficile; [11],2 µg/mL
same,MIC,C. difficile; [12],0.5 µg/mL
same,MIC,C. difficile; [13],1 µg/mL
same,MIC,C. difficile; [14],2 µg/mL
same,MIC,C. difficile; [15],0.5 µg/mL
same,MIC,C. difficile; [16],1 µg/mL
same,MIC,C. difficile; [17],1 µg/mL
same,MIC,C. difficile; [18],1 µg/mL
same,MIC,Bi. brevi; [19],2 µg/mL
same,MIC,"L. acidophilus; Micromyx Number 0681, Table 1",2 µg/mL
same,MIC,"Ba. fragilis; B. fragilis, Micromyx Number 0123 (ATCC strain), Table 2",32 µg/mL
same,MIC,Ba. fragilis; [20],> 16 µg/mL
same,MIC,E. lentum; [21],2 µg/mL
same,MIC,"L. casei; Micromyx Number 1722, Table 1",> 16 µg/mL
Cl.O=c1cc(NCc2ccc(Cl)c(Cl)c2)[nH]c(=O)n1CCOCCN1CCOCC1 [Compound 240D],MIC,Bi. longum; [22],> 32 µg/mL
same,MIC,C. difficile; [23],32 µg/mL
same,MIC,C. difficile; [24],8 µg/mL
same,MIC,C. difficile; [25],32 µg/mL
same,MIC,C. difficile; [26],8 µg/mL
same,MIC,C. difficile; [27],16 µg/mL
same,MIC,C. difficile; [28],8 µg/mL
same,MIC,C. difficile; [29],16 µg/mL
same,MIC,C. difficile; [30],2 µg/mL
same,MIC,C. difficile; [31],16 µg/mL
same,MIC,C. difficile; [32],8 µg/mL
same,MIC,Bi. brevi; [33],> 32 µg/mL
same,MIC,"L. acidophilus; Strain no. 0681, Table 3",16 µg/mL
same,MIC,Ba. fragilis; [34],> 32 µg/mL
same,MIC,E. lentum; [35],> 32 µg/mL
same,MIC,L. casei; [36],> 32 µg/mL
O=c1[nH]c(NCc2ccc(Cl)c(Cl)c2)nc2ncn(CCOCCN3CCOCC3)c12 [Compound 360A],MIC,Bi. longum; [22],> 32 µg/mL
same,MIC,C. difficile; [23],16 µg/mL
same,MIC,C. difficile; [24],8 µg/mL
same,MIC,C. difficile; [25],16 µg/mL
same,MIC,C. difficile; [26],4 µg/mL
same,MIC,C. difficile; [27],16 µg/mL
same,MIC,C. difficile; [28],4 µg/mL
same,MIC,C. difficile; [29],8 µg/mL
same,MIC,C. difficile; [30],1 µg/mL
same,MIC,C. difficile; [31],16 µg/mL
same,MIC,C. difficile; [32],8 µg/mL
same,MIC,Bi. brevi; [33],> 32 µg/mL
same,MIC,"L. acidophilus; Strain no. 0681, Table 3",16 µg/mL
same,MIC,Ba. fragilis; [34],> 32 µg/mL
same,MIC,E. lentum; [35],> 32 µg/mL
same,MIC,L. casei; [36],> 32 µg/mL
CCc1cc(Nc2cc(=O)n(CCCCO)c(=O)[nH]2)ccc1C [Compound 179E],MIC,Bi. longum; [1],> 32 µg/mL
same,MIC,C. difficile; [2],16 µg/mL
same,MIC,C. difficile; [3],16 µg/mL
same,MIC,C. difficile; [4],4 µg/mL
same,MIC,C. difficile; [5],8 µg/mL
same,MIC,C. difficile; [6],16 µg/mL
same,MIC,C. difficile; [7],4 µg/mL
same,MIC,C. difficile; [8],16 µg/mL
same,MIC,C. difficile; [9],4 µg/mL
same,MIC,C. difficile; [10],8 µg/mL
same,MIC,C. difficile; [11],1 µg/mL
same,MIC,C. difficile; [12],16 µg/mL
same,MIC,C. difficile; [13],8 µg/mL
same,MIC,C. difficile; [14],8 µg/mL
same,MIC,C. difficile; [15],16 µg/mL
same,MIC,C. difficile; [16],4 µg/mL
same,MIC,C. difficile; [17],4 µg/mL
same,MIC,C. difficile; [18],4 µg/mL
same,MIC,Bi. brevi; [19],> 32 µg/mL
same,MIC,"L. acidophilus; Micromyx Number 0681, Table 1",32 µg/mL
same,MIC,Ba. fragilis; [20],> 32 µg/mL
same,MIC,E. lentum; [21],> 32 µg/mL
same,MIC,"L. casei; Micromyx Number 1722, Table 1",32 µg/mL
CCc1cc(Nc2nc3ncn(CCCCCOC)c3c(=O)[nH]2)ccc1C [Compound 315C],MIC,Bi. longum; [1],> 32 µg/mL
same,MIC,C. difficile; [2],16 µg/mL
same,MIC,C. difficile; [3],16 µg/mL
same,MIC,C. difficile; [4],8 µg/mL
same,MIC,C. difficile; [5],8 µg/mL
same,MIC,C. difficile; [6],> 32 µg/mL
same,MIC,C. difficile; [7],8 µg/mL
same,MIC,C. difficile; [8],16 µg/mL
same,MIC,C. difficile; [9],8 µg/mL
same,MIC,C. difficile; [10],8 µg/mL
same,MIC,C. difficile; [11],4 µg/mL
same,MIC,C. difficile; [12],16 µg/mL
same,MIC,C. difficile; [13],8 µg/mL
same,MIC,C. difficile; [14],8 µg/mL
same,MIC,C. difficile; [15],16 µg/mL
same,MIC,C. difficile; [16],8 µg/mL
same,MIC,C. difficile; [17],8 µg/mL
same,MIC,C. difficile; [18],8 µg/mL
same,MIC,Bi. brevi; [19],> 32 µg/mL
same,MIC,"L. acidophilus; Micromyx Number 0681, Table 1",16 µg/mL
same,MIC,Ba. fragilis; [20],> 32 µg/mL
same,MIC,E. lentum; [21],> 32 µg/mL
same,MIC,"L. casei; Micromyx Number 1722, Table 1",32 µg/mL
